Assay results: ChEMBL document CHEMBL1671626, “In vitro profiling of ceftaroline against a collection of recent bacterial clinical isolates from across the United States” (2008)
Values after ≈ are worked out from the molar mass of the structure shown.

Key:
Type in all cases: functional
[1] = tested on: Escherichia coli; experiment: Antibacterial activity against ceftazidime-susceptible Escherichia coli assessed as susceptible isolates by CLSI M7-A7 broth microdilution method
[2] = tested on: Acinetobacter; experiment: Antibacterial activity against multidrug-resistant Acinetobacter by CLSI M7-A7 broth microdilution method
[3] = tested on: Enterobacter cloacae; experiment: Antibacterial activity against ceftazidime-susceptible Enterobacter cloacae assessed as resistant isolates by CLSI M7-A7 broth microdilution method
[4] = tested on: Acinetobacter; experiment: Antibacterial activity against multidrug-resistant Acinetobacter assessed as resistant isolates by CLSI M7-A7 broth microdilution method
[5] = tested on: Moraxella catarrhalis; experiment: Antibacterial activity against beta lactamase-positive Moraxella catarrhalis by CLSI M7-A7 broth microdilution method
[6] = tested on: Citrobacter freundii; experiment: Antibacterial activity against ceftazidime-susceptible Citrobacter freundii by CLSI M7-A7 broth microdilution method
[7] = tested on: Staphylococcus aureus; experiment: Antibacterial activity against coagulase-negative and oxacillin-susceptible Staphylococcus aureus assessed as resistant isolates by CLSI M7-A7 broth microdilution method
[8] = tested on: Enterobacter cloacae; experiment: Antibacterial activity against ceftazidime-nonsusceptible Enterobacter cloacae assessed as resistant isolates by CLSI M7-A7 broth microdilution method
[9] = tested on: Serratia marcescens; experiment: Antibacterial activity against ceftazidime-susceptible Serratia marcescens assessed as susceptible isolates by CLSI M7-A7 broth microdilution method
[10] = tested on: Staphylococcus aureus; experiment: Antibacterial activity against methicillin-resistant Staphylococcus aureus by CLSI M7-A7 broth microdilution method
[11] = tested on: Providencia sp.; experiment: Antibacterial activity against ceftazidime-susceptible Providencia sp. assessed as susceptible isolates by CLSI M7-A7 broth microdilution method
[12] = tested on: Streptococcus viridans; experiment: Antibacterial activity against penicillin-susceptible Streptococcus viridans by CLSI M7-A7 broth microdilution method
[13] = tested on: Streptococcus pneumoniae; experiment: Antibacterial activity against penicillin-resistant Streptococcus pneumoniae assessed as resistant isolates by CLSI M7-A7 broth microdilution method
[14] = tested on: Staphylococcus aureus; experiment: Antibacterial activity against coagulase-negative and oxacillin-susceptible Staphylococcus aureus by CLSI M7-A7 broth microdilution method
[15] = tested on: Staphylococcus aureus; experiment: Antibacterial activity against methicillin-resistant Staphylococcus aureus assessed as susceptible isolates by CLSI M7-A7 broth microdilution method
[16] = tested on: Staphylococcus aureus; experiment: Antibacterial activity against methicillin-susceptible Staphylococcus aureus assessed as resistant isolates by CLSI M7-A7 broth microdilution method
[17] = tested on: Staphylococcus aureus; experiment: Antibacterial activity against coagulase-negative and oxacillin-susceptible Staphylococcus aureus assessed as susceptible isolates by CLSI M7-A7 broth microdilution method
[18] = tested on: Haemophilus influenzae; experiment: Antibacterial activity against beta lactamase-positive Haemophilus influenzae by CLSI M7-A7 broth microdilution method
[19] = tested on: Staphylococcus aureus; experiment: Antibacterial activity against methicillin-susceptible Staphylococcus aureus assessed as susceptible isolates by CLSI M7-A7 broth microdilution method
[20] = tested on: Providencia sp.; experiment: Antibacterial activity against ceftazidime-susceptible Providencia sp. assessed as resistant isolates by CLSI M7-A7 broth microdilution method
[21] = tested on: Morganella morganii; experiment: Antibacterial activity against ceftazidime-susceptible Morganella morganii assessed as susceptible isolates by CLSI M7-A7 broth microdilution method
[22] = tested on: Proteus mirabilis; experiment: Antibacterial activity against ceftazidime-susceptible Proteus mirabilis assessed as resistant isolates by CLSI M7-A7 broth microdilution method
[23] = tested on: Klebsiella pneumoniae; experiment: Antibacterial activity against ceftazidime-nonsusceptible Klebsiella pneumoniae assessed as susceptible isolates by CLSI M7-A7 broth microdilution method
[24] = tested on: Enterobacteriaceae; experiment: Antibacterial activity against ceftazidime-susceptible Enterobacteriaceae assessed as susceptible isolates by CLSI M7-A7 broth microdilution method
[25] = tested on: Serratia marcescens; experiment: Antibacterial activity against ceftazidime-susceptible Serratia marcescens by CLSI M7-A7 broth microdilution method
[26] = tested on: Escherichia coli; experiment: Antibacterial activity against ceftazidime-nonsusceptible Escherichia coli assessed as susceptible isolates by CLSI M7-A7 broth microdilution method
[27] = tested on: Acinetobacter; experiment: Antibacterial activity against imipenem-susceptible Acinetobacter by CLSI M7-A7 broth microdilution method
[28] = tested on: Staphylococcus aureus; experiment: Antibacterial activity against methicillin-resistant Staphylococcus aureus assessed as resistant isolates by CLSI M7-A7 broth microdilution method
[29] = tested on: Streptococcus pneumoniae; experiment: Antibacterial activity against penicillin-susceptible Streptococcus pneumoniae by CLSI M7-A7 broth microdilution method
[30] = tested on: Streptococcus pneumoniae; experiment: Antibacterial activity against penicillin-resistant Streptococcus pneumoniae assessed as susceptible isolates by CLSI M7-A7 broth microdilution method
[31] = tested on: Haemophilus influenzae; experiment: Antibacterial activity against beta lactamase-negative Haemophilus influenzae assessed as susceptible isolates by CLSI M7-A7 broth microdilution method
[32] = tested on: Morganella morganii; experiment: Antibacterial activity against ceftazidime-susceptible Morganella morganii assessed as resistant isolates by CLSI M7-A7 broth microdilution method
[33] = tested on: Enterobacter cloacae; experiment: Antibacterial activity against ceftazidime-susceptible Enterobacter cloacae by CLSI M7-A7 broth microdilution method
[34] = tested on: Haemophilus influenzae; experiment: Antibacterial activity against beta lactamase-positive Haemophilus influenzae assessed as susceptible isolates by CLSI M7-A7 broth microdilution method
[35] = tested on: Moraxella catarrhalis; experiment: Antibacterial activity against beta lactamase-positive Moraxella catarrhalis assessed as susceptible isolates by CLSI M7-A7 broth microdilution method
[36] = tested on: Enterobacteriaceae; experiment: Antibacterial activity against ceftazidime-nonsusceptible Enterobacteriaceae assessed as resistant isolates by CLSI M7-A7 broth microdilution method
[37] = tested on: Enterobacter cloacae; experiment: Antibacterial activity against ceftazidime-susceptible Enterobacter cloacae assessed as susceptible isolates by CLSI M7-A7 broth microdilution method
[38] = tested on: Escherichia coli; experiment: Antibacterial activity against ceftazidime-susceptible Escherichia coli assessed as resistant isolates by CLSI M7-A7 broth microdilution method
[39] = tested on: Enterobacteriaceae; experiment: Antibacterial activity against ceftazidime-susceptible Enterobacteriaceae by CLSI M7-A7 broth microdilution method
[40] = tested on: Staphylococcus aureus; experiment: Antibacterial activity against coagulase-negative and oxacillin-resistant Staphylococcus aureus assessed as resistant isolates by CLSI M7-A7 broth microdilution method
[41] = tested on: Staphylococcus aureus; experiment: Antibacterial activity against coagulase-negative and oxacillin-resistant Staphylococcus aureus assessed as susceptible isolates by CLSI M7-A7 broth microdilution method
[42] = tested on: Escherichia coli; experiment: Antibacterial activity against ceftazidime-nonsusceptible Escherichia coli by CLSI M7-A7 broth microdilution method
[43] = tested on: Streptococcus pyogenes; experiment: Antibacterial activity against erythromycin-nonsusceptible Streptococcus pyogenes by CLSI M7-A7 broth microdilution method
[44] = tested on: Acinetobacter; experiment: Antibacterial activity against imipenem-susceptible Acinetobacter assessed as resistant isolates by CLSI M7-A7 broth microdilution method
[45] = tested on: Enterobacter cloacae; experiment: Antibacterial activity against ceftazidime-nonsusceptible Enterobacter cloacae by CLSI M7-A7 broth microdilution method

CO/N=C(\C(=O)N[C@@H]1C(=O)N2C(C(=O)O)=C(CSc3nc(=O)c(O)nn3C)CS[C@H]12)c1csc(N)n1 [CEFTRIAXONE]
Activity [1]: 97.4% | MIC [2]: > 16 µg/mL | MIC50 [2]: > 16 µg/mL | Activity [3]: 0% | Activity [4]: 0% | MIC [5]: ≤ 0.25 µg/mL | MIC50 [5]: ≤ 0.25 µg/mL | MIC90 [5]: 1 µg/mL (≈ 1.8 µM) | MIC50 [6]: 0.12 µg/mL (≈ 0.216 µM) | MIC90 [6]: 0.5 µg/mL (≈ 0.902 µM) | Activity [7]: 0% | Activity [8]: 0% | Activity [9]: 93.2% | MIC50 [10]: 16 µg/mL (≈ 28.9 µM) | MIC90 [10]: > 32 µg/mL | Activity [11]: 100% | MIC50 [12]: 0.06 µg/mL (≈ 0.108 µM) | MIC90 [12]: 0.25 µg/mL (≈ 0.451 µM) | Activity [13]: 6.8% | MIC50 [14]: 1 µg/mL (≈ 1.8 µM) | MIC90 [14]: 4 µg/mL (≈ 7.21 µM) | Activity [15]: 14.2% | Activity [16]: 0.3% | Activity [17]: 98% | MIC [18]: ≤ 0.06 µg/mL | MIC50 [18]: ≤ 0.06 µg/mL | MIC90 [18]: ≤ 0.06 µg/mL | Activity [19]: 97.1% | Activity [20]: 0% | Activity [21]: 100% | Activity [22]: 0% | Activity [23]: 12.1% | Activity [24]: 98% | MIC50 [25]: 0.25 µg/mL (≈ 0.451 µM) | MIC90 [25]: 4 µg/mL (≈ 7.21 µM) | Activity [26]: 9.5% | MIC50 [27]: 16 µg/mL (≈ 28.9 µM) | MIC90 [27]: > 16 µg/mL | Activity [28]: 33.1% | MIC50 [29]: 0.03 µg/mL (≈ 0.0541 µM) | MIC90 [29]: 0.06 µg/mL (≈ 0.108 µM) | Activity [30]: 79.4% | Activity [31]: 100% | Activity [32]: 0% | MIC50 [33]: 0.12 µg/mL (≈ 0.216 µM) | MIC90 [33]: 1 µg/mL (≈ 1.8 µM) | Activity [34]: 100% | Activity [35]: 100% | Activity [36]: 0% | Activity [37]: 98% | Activity [38]: 0% | MIC50 [39]: ≤ 0.06 µg/mL | MIC90 [39]: 0.25 µg/mL (≈ 0.451 µM) | Activity [40]: 22.1% | Activity [41]: 27.1% | MIC50 [42]: > 16 µg/mL | MIC90 [42]: > 16 µg/mL | MIC50 [43]: 0.03 µg/mL (≈ 0.0541 µM) | MIC90 [43]: 0.12 µg/mL (≈ 0.216 µM) | Activity [44]: 0% | MIC50 [45]: > 16 µg/mL | MIC90 [45]: > 16 µg/mL

C[C@H]1COc2c(N3CCN(C)CC3)c(F)cc3c(=O)c(C(=O)O)cn1c23.C[C@H]1COc2c(N3CCN(C)CC3)c(F)cc3c(=O)c(C(=O)O)cn1c23.O [LEVOFLOXACIN]
Activity [1]: 86.4% | MIC50 [2]: 16 µg/mL | Activity [3]: 2% | Activity [4]: 87.5% | MIC [5]: ≤ 0.03 µg/mL | MIC50 [5]: ≤ 0.03 µg/mL | MIC90 [5]: ≤ 0.03 µg/mL | MIC [6]: ≤ 0.03 µg/mL | MIC50 [6]: ≤ 0.03 µg/mL | MIC90 [6]: 1 µg/mL | Activity [7]: 17.9% | Activity [8]: 25.7% | Activity [9]: 98.3% | MIC50 [10]: 8 µg/mL | MIC90 [10]: > 16 µg/mL | Activity [11]: 66.7% | MIC50 [12]: 1 µg/mL | MIC90 [12]: 1 µg/mL | Activity [13]: 0.7% | MIC50 [14]: 0.12 µg/mL | MIC90 [14]: 8 µg/mL | Activity [15]: 25.6% | Activity [16]: 15.2% | Activity [17]: 81.6% | MIC50 [18]: 0.015 µg/mL | MIC90 [18]: 0.03 µg/mL | Activity [19]: 83.9% | Activity [20]: 25.9% | Activity [21]: 76.5% | Activity [22]: 20.7% | Activity [23]: 37.9% | Activity [24]: 89.6% | MIC50 [25]: 0.12 µg/mL | MIC90 [25]: 1 µg/mL | Activity [26]: 14.3% | MIC50 [27]: 0.5 µg/mL | MIC90 [27]: > 16 µg/mL | Activity [28]: 73.2% | MIC50 [29]: 0.5 µg/mL | MIC90 [29]: 1 µg/mL | Activity [30]: 99.3% | Activity [31]: 100% | Activity [32]: 20.6% | MIC [33]: ≤ 0.03 µg/mL | MIC50 [33]: ≤ 0.03 µg/mL | MIC90 [33]: 0.5 µg/mL | Activity [34]: 100% | Activity [35]: 100% | Activity [36]: 51.4% | Activity [37]: 94% | Activity [38]: 13.6% | MIC50 [39]: 0.06 µg/mL | MIC90 [39]: 4 µg/mL | Activity [40]: 73.9% | Activity [41]: 21.7% | MIC50 [42]: > 16 µg/mL | MIC90 [42]: > 16 µg/mL | MIC50 [43]: 0.5 µg/mL | MIC90 [43]: 1 µg/mL | Activity [44]: 36.2% | MIC50 [45]: 0.12 µg/mL | MIC90 [45]: 1 µg/mL
